# Results: patent publication US20250263370A1 (Tay Therapeutics Limited, priority 2022, published 2025)
# Like-named read-outs stand apart in the source and are kept apart here.
# Tests used:
# [1] = target: BRD4 BD2 (Homo sapiens (Human), UniProt O60885); experiment: NanoBRET bromodomain assay, NanoLuc-BRD4-BD2 fusion in HEK293 cells; settings: for IC50: BRD4 BD2 (IC50), NanoBRET, HEK293 cells, top concentration 10 μM; for Fold selectivity: IC50 for BRD4 BD1 divided by IC50 for BRD4 BD2, qualitative if an IC50 is at the upper limit;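 for all read-outs here: tracer displacement BRET read in transfected cells after 2 h compound exposure at 37 °C, signal in milliBRET units corrected against no-tracer background wells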
# Description: HEK293 cells were transfected using NanoLuc-BRD4-BD1 or NanoLuc-BRD4-BD2 fusion vectors and incubated at 37° C. in an atmosphere of 5% CO2 for 20-24 hours. The transfected cells were then dispensed into 96-well plates using 90 μl cell suspension per well containing 2×10^5 cells/mL in Opti-MEM and 1× final concentration of tracer. 90 μL per well of cell suspension without tracer was also dispensed into at least 3 wells as “No tracer control samples” for background correction. Serially diluted test compounds were prepared at 1000× concentration in DMSO and further diluted to 10× concentration in Opti-MEM. […] Plates were then incubated at 37° C. +5% 002 incubator for 2 hours. […] Donor emission (450 nm) and acceptor emission (610 nm) were measured using PHERAstar (BMG LabTech). For data analysis, the raw BRET ratio was generated and converted to milliBRET units with background correction using the formula: [(Acceptorsample/Donorsample−(Acceptorno tracer control/Donorno tracer control)]×1000. The mBU data was plotted as a function of compound concentration and IC50s for BRET assay were determined by nonlinear regression analysis of concentration response curves using the Collaborative Drug Discovery Vault software. The fold-selectivity was calculated by dividing the IC50 for BRD4 BD1 by the IC50 for BRD4 BD2.
# [2] = Sprague-Dawley rat pharmacokinetics, IV and PO cassette dosing; format: in vivo; settings: Method 1; for IV T1/2: IV 1 mg/kg; for PO F: PO 5 mg/kg
# Description: Compounds were formulated in 5% DMSO, 40% PEG-400, 55% Milli-Q water at a concentration of 0.2 mg/mL for IV and at 0.5 mg/mL for PO. Two male Sprague-Dawley rats per arm were dosed with up to 5 compounds in cassette mode, which each compound being dosed at 1 mg/kg IV and 5 mg/kg PO. Blood was sampled at various timepoints and plasma isolated. 50 μL of plasma with 5 μL of blank Sprague-Dawley rat plasma were added to 200 μL of acetonitrile containing IS mixture. The samples were vortexed for 30 s. After centrifugation at 4 degrees Celsius, 3900 rpm for 15 min, the supernatant was diluted 3 times with water. 20 μL of diluted supernatant was injected into the LC/MS/MS system for quantitative analysis and concentration of analyte determined by comparison with matrix matched standard curve. WinNonlin (Phoenix™, version 8.3) or other similar software may be used for pharmacokinetic calculations.
# [3] = target: BRD4 BD1 (Homo sapiens (Human), UniProt O60885); experiment: NanoBRET bromodomain assay, NanoLuc-BRD4-BD1 fusion in HEK293 cells; format: cell-based; settings: top concentration 10 μM
# [4] = Intrinsic clearance in liver microsomes, rat; format: in vitro ADME; settings: rat, liver microsomes, pH 7.4, rat liver microsomes, read-out: Half-Life (T1/2) (min), Rat
# Description: From stock solution of compound on 10 mM DMSO, a working solution of 0.1 mM is prepared by diluting the compound in DMSO. 6.25 μL of a 20 mg/mL solution of microsomes in PBS pH 7.4 buffer is added to 216.25 μL PBS pH 7.4 buffer (final microsome concentration—0.5 mg/mL). 25 μL of 10 mM solution of NADPH in PBS pH 7.4 buffer is added to the incubations (final NADPH concentration—1 mM). The mixture is pre-warmed to 37° C. for 10 minutes. 2.5 μL of test compound working solution is added (final compound concentration—1 μM with 1% DMSO). Aliquots of 30 μL are taken from the reaction solution at 0.5, 5, 15, 30 and 60 minutes. The reaction was stopped by the addition of 5 volumes of cold acetonitrile with IS (100 nM alprazolam, 200 nM caffeine and 100 nM tolbutamide). Samples were centrifuged at 3, 220 g for 40 minutes. Aliquots of 100 μL of the supernatant are mixed with 100 μL of ultra-pure H2O and used for LC-MS/MS analysis. The percent compound remaining at each time point is calculated with respect to that of the 0.5 min sample. The data are analysed to calculate half-life. Control experiments are run without NADPH and blank samples are prepared using DMSO without the test compound.
# A 50 mM stock solution (in DMSO) is prepared for the compound. From the stock solution, a working solution of 0.5 mM is prepared by diluting the compound in DMSO. This concentration of working solution is prepared considering a final concentration of 1 uM with 0.1% DMSO. The compound (1 μL of working solution) is spiked in PBS with pH 7.4 ([…]) at a concentration of 1 μM. Subsequently, 110 μL of 10 mM NADPH is added (as a co-factor). The sample is incubated at 37° C. for 15 min. Following this, pre-warmed liver microsomes (27.5 μL; final protein conc. 0.5 mg/mL) are added. The samples are then incubated at 37° C. Aliquots of samples are withdrawn at 0, 5, 15, 30, 45 and 60 min. The reaction is stopped by using chilled acetonitrile containing internal standard. The samples are centrifuged, and the supernatants analysed by LC-MS/MS. The percent compound remaining at each time point is calculated with respect to that of the 0 min sample. The data are then analysed to calculate half-life and intrinsic clearance (CLint). Control experiments are run without NADPH and blank samples are prepared using DMSO without the test compound.
# [5] = Plasma stability assay, rat plasma; format: in vitro ADME; settings: Method 2 (10 μM)
# Description: From stock solution of compound in 10 mM DMSO, a working solution of 1 mM is prepared by diluting the compound in DMSO. To 398 μL of plasma pre-warmed at 37° C. for 15 minutes), 2 μL of working solution of compound is added, resulting in a final concentration of 5 μM (0.5% DMSO) for the compound. The sample is then incubated at 37° C. Aliquot is withdrawn at specified time-points (0, 15, 30, 60 and 120 mins). The reaction is stopped by addition of 450 μL cold acetonitrile containing internal standard (IS). […] Aliquots of the supernatant is analysed using LC-MS/MS. The percent remaining of the compound at each time point is calculated with respect to the control sample (0 min time-point).
# A working solution of compound (500 μM) is prepared in DMSO (100%). To 735 μL of plasma, 15 μL of working solution of compound is added—resulting in a final concentration of 10 μM (2% DMSO) for the compound. The sample is then incubated at 37° C. Aliquot is withdrawn at time-points—0, 15, 30, 60, 90 and 120 mins. The reaction is stopped by using chilled acetonitrile containing internal standard (IS). The samples are centrifuged and the supernatants analyzed using LC-MS/MS. The percent remaining of the compound at each time point is calculated with respect to the control sample (0 min time-point).
Structure (SMILES),IC50 [1] [nM],Fold selectivity [1],IV T1/2 [2] [min],PO F [2] [%],IC50 [3] [nM],half-life at 1 μM ([4]; Method 1) [min],"Plasma Stability (% remaining at 120 minutes), Rat [5] [%]",half-life at 1 μM ([4]; Method 2) [min]
"CNC(=O)c1[nH]c(C(=O)NC2CCC2)cc1OC(C)c1ccc(Cl)cc1 (single isomer, unassigned) [Example 27, 3-(1-(4-chlorophenyl)ethoxy)-N^5-cyclobutyl-N^2-methyl-1H-pyrrole-2,5-dicarboxamide]",< 50,XXX (Fold >200),24,47,≥ 10000,47,47,
"CNC(=O)c1[nH]c(C(=O)NC2COC2)cc1OC(C)c1ccc(Cl)cc1 (single isomer, unassigned) [Example 31, 3-(1-(4-chlorophenyl)ethoxy)-N^2-methyl-N^5-(oxetan-3-yl)-1H-pyrrole-2,5-dicarboxamide]",,XX (Fold >50 and ≤200),36,15,,> 60,81,
"CNC(=O)c1[nH]c(C(=O)NC2CCC2)cc1OC(C)c1ccc(Cl)cc1F (single isomer, unassigned) [Example 35, 3-(1-(4-chloro-2-fluorophenyl)ethoxy)-N^5-cyclobutyl-N^2-methyl-1H-pyrrole-2,5-dicarboxamide]",< 50,XXX (Fold >200),30,65,≥ 10000,46,67,
"CNC(=O)c1[nH]c(C(=O)N[C@H]2CC[C@H](O)CC2)cc1OC(C)c1ccccc1F (single isomer, unassigned) [Example 45]",,XX (Fold >50 and ≤200),,,,,88,> 60
"CNC(=O)c1[nH]c(C(=O)NC2COC2)cc1OC(C)c1ccccc1F (single isomer, unassigned) [Example 47, 3-(1-(2-fluorophenyl)ethoxy)-N^2-methyl-N^5-(oxetan-3-yl)-1H-pyrrole-2,5-dicarboxamide]",50 to 200,XX (Fold >50 and ≤200),,,≥ 10000,,76,> 60
"CCNC(=O)c1cc(OC(C)c2ccc(Br)cc2)c(C(=O)NC)[nH]1 (single isomer, unassigned) [Example 49, 3-(1-(4-bromophenyl)ethoxy)-N^5-ethyl-N^2-methyl-1H-pyrrole-2,5-dicarboxamide]",< 50,XXX (Fold >200),,,≥ 10000,,90,> 60
"CCNC(=O)c1cc(OC(C)c2ccc(I)cc2)c(C(=O)NC)[nH]1 (single isomer, unassigned) [Example 51, N^5-ethyl-3-(1-(4-iodophenyl)ethoxy)-N^2-methyl-1H-pyrrole-2,5-dicarboxamide]",< 50,XXX (Fold >200),,,≥ 10000,,93,> 60
"CCNC(=O)c1cc(OC(C)c2c(F)cccc2F)c(C(=O)NC)[nH]1 (single isomer, unassigned) [Example 55, 3-(1-(2,6-difluorophenyl)ethoxy)-N^5-ethyl-N^2-methyl-1H-pyrrole-2,5-dicarboxamide]",,— (Fold ≥0 and ≤2),,,,,88,> 60
"CCNC(=O)c1cc(OC(c2ccccc2)c2ccccc2)c(C(=O)NC)[nH]1 [Example 53, 3-(benzhydryloxy)-N^5-ethyl-N^2-methyl-1H-pyrrole-2,5-dicarboxamide]",50 to 200,XX (Fold >50 and ≤200),,,≥ 10000,,91,> 60
"CNC(=O)c1[nH]c(C(=O)NCC(F)(F)F)cc1O[C@@H](C)c1ccccc1 [Example 54, (S)—N^2-methyl-3-(1-phenylethoxy)-N^5-(2,2,2-trifluoroethyl)-1H-pyrrole-2,5-dicarboxamide]",50 to 200,XX (Fold >50 and ≤200),,,≥ 10000,,93,> 60
"CNC(=O)c1[nH]c(C(=O)NC(C)C)cc1O[C@@H](C)c1ccc(Cl)cc1 [Example 61, (S)-3-(1-(4-chlorophenyl)ethoxy)-N^5-isopropyl-N^2-methyl-1H-pyrrole-2,5-dicarboxamide]",50 to 200,XX (Fold >50 and ≤200),,,≥ 10000,,81,> 60
"CNC(=O)c1[nH]c(-c2ncc(C)[nH]2)cc1O[C@@H](C)c1ccccc1F [Example 68, (S)-3-(1-(2-fluorophenyl)ethoxy)-N-methyl-5-(5-methyl-1H-imidazol-2-yl)-1H-pyrrole-2-carboxamide]",< 50,XXX (Fold >200),,,≥ 10000,,75,23
"CNC(=O)c1[nH]c(-c2ncc(C)[nH]2)cc1O[C@@H](C)c1ccc(Cl)cc1 [Example 69, (S)-3-(1-(4-chlorophenyl)ethoxy)-N-methyl-5-(5-methyl-1H-imidazol-2-yl)-1H-pyrrole-2-carboxamide]",< 50,XXX (Fold >200),,,≥ 10000,,83,21
"CCNC(=O)c1[nH]c(C(=O)NC)c(O[C@@H](C)c2ccccc2F)c1Br [Example 72, (S)-3-bromo-N^2-ethyl-4-(1-(2-fluorophenyl)ethoxy)-N^5-methyl-1H-pyrrole-2,5-dicarboxamide]",> 10000,— (Fold ≥0 and ≤2),,,,,9,13
